The nature of this series: activity coefficient (dimensionless); of the first substance listed, at infinite dilution; xn = mol fraction of the nth substance listed. The note with it: 101 kPa, Liquid, Chromatography, x1 = 0.

± gives the expanded uncertainty stated by the source.

Regarding `CC(C)CC(C)(C)C` [2,2,4-trimethylpentane] + CCCCC[N+]1(C)CCCCC1.O=S(=O)([N-]S(=O)(=O)C(F)(F)F)C(F)(F)F, the activity coefficient is, setting by setting: (308.15 K) 13.4 ± 0.9; (318.15 K) 12.5 ± 0.9; (328.15 K) 11.8 ± 0.8; (338.15 K) 11.4 ± 0.8; (348.15 K) 10.9 ± 0.7; (358.15 K) 10.6 ± 0.7.

Regarding `CCC(C)(C)C` [2,2-dimethylbutane] + CCCCCC[N+]1(C)CCCCC1.O=S(=O)([N-]S(=O)(=O)C(F)(F)F)C(F)(F)F, the activity coefficient by setting is: (308.15 K) 6.67 ± 0.45; (318.15 K) 6.44 ± 0.44; (328.15 K) 6.12 ± 0.42; (338.15 K) 6 ± 0.41; (348.15 K) 5.84 ± 0.4; (358.15 K) 5.65 ± 0.39.

In the case of `CCC(C)(C)C` [2,2-dimethylbutane] + CCCCC[N+]1(C)CCCCC1.O=S(=O)([N-]S(=O)(=O)C(F)(F)F)C(F)(F)F, the activity coefficient by setting is: (318.15 K) 7.94 ± 0.54; (328.15 K) 7.7 ± 0.53; (338.15 K) 7.34 ± 0.5; (348.15 K) 7.04 ± 0.48; (358.15 K) 6.86 ± 0.47.

With `CCCCC(C)=O` [2-hexanone] + CCCCCC[N+]1(C)CCCCC1.O=S(=O)([N-]S(=O)(=O)C(F)(F)F)C(F)(F)F, the activity coefficient reads like this: (308.15 K) 0.694 ± 0.047; (318.15 K) 0.706 ± 0.047; (328.15 K) 0.722 ± 0.048; (338.15 K) 0.74 ± 0.049; (348.15 K) 0.764 ± 0.05; (358.15 K) 0.784 ± 0.051.

For the compound `CCCCC(C)=O` [2-hexanone] + CCCCC[N+]1(C)CCCCC1.O=S(=O)([N-]S(=O)(=O)C(F)(F)F)C(F)(F)F, the activity coefficient (318.15 K) worked out at 0.761 ± 0.05; the activity coefficient (328.15 K) was 0.779 ± 0.051; the activity coefficient (338.15 K) worked out at 0.792 ± 0.052; the activity coefficient (348.15 K) came to 0.822 ± 0.053; the activity coefficient (358.15 K) is 0.84 ± 0.054.

Take `CCC(C)(C)OC` [2-methoxy-2-methylbutane] + CCCCCC[N+]1(C)CCCCC1.O=S(=O)([N-]S(=O)(=O)C(F)(F)F)C(F)(F)F: the activity coefficient (308.15 K) came out at 2.11 ± 0.14; the activity coefficient (318.15 K) stood at 2.14 ± 0.15; the activity coefficient (328.15 K) was 2.18 ± 0.15; the activity coefficient (338.15 K) was determined as 2.2 ± 0.15; the activity coefficient (348.15 K) came to 2.22 ± 0.15; the activity coefficient (358.15 K) was 2.25 ± 0.15.

Regarding `CCC(C)(C)OC` [2-methoxy-2-methylbutane] + CCCCC[N+]1(C)CCCCC1.O=S(=O)([N-]S(=O)(=O)C(F)(F)F)C(F)(F)F, the activity coefficient (308.15 K) is 2.44 ± 0.17; the activity coefficient (318.15 K) was determined as 2.47 ± 0.17; the activity coefficient (328.15 K) stood at 2.5 ± 0.17; the activity coefficient (338.15 K) was determined as 2.53 ± 0.17; the activity coefficient (348.15 K) was found to be 2.57 ± 0.17; the activity coefficient (358.15 K) was found to be 2.6 ± 0.18.

In the case of `COC(C)(C)C` [2-methoxy-2-methylpropane] + CCCCCC[N+]1(C)CCCCC1.O=S(=O)([N-]S(=O)(=O)C(F)(F)F)C(F)(F)F, the activity coefficient is, setting by setting: (308.15 K) 1.59 ± 0.11; (318.15 K) 1.63 ± 0.11; (328.15 K) 1.66 ± 0.11; (338.15 K) 1.7 ± 0.11; (348.15 K) 1.72 ± 0.12; (358.15 K) 1.76 ± 0.12.

On to `COC(C)(C)C` [2-methoxy-2-methylpropane] + CCCCC[N+]1(C)CCCCC1.O=S(=O)([N-]S(=O)(=O)C(F)(F)F)C(F)(F)F, for which the activity coefficient was determined as 1.81 ± 0.12 (308.15 K); 1.85 ± 0.12 (318.15 K); 1.86 ± 0.13 (328.15 K); 1.89 ± 0.13 (338.15 K); 1.94 ± 0.13 (348.15 K); 1.98 ± 0.13 (358.15 K).

As to `CC(C)=O` [acetone] + CCCCCC[N+]1(C)CCCCC1.O=S(=O)([N-]S(=O)(=O)C(F)(F)F)C(F)(F)F, the activity coefficient came out at 0.421 ± 0.035 (308.15 K); 0.429 ± 0.035 (318.15 K); 0.436 ± 0.035 (328.15 K); 0.444 ± 0.036 (338.15 K); 0.455 ± 0.036 (348.15 K); 0.46 ± 0.036 (358.15 K).

`CC(C)=O` [acetone] + CCCCC[N+]1(C)CCCCC1.O=S(=O)([N-]S(=O)(=O)C(F)(F)F)C(F)(F)F: the activity coefficient worked out at 0.398 ± 0.034 (308.15 K); 0.426 ± 0.035 (318.15 K); 0.435 ± 0.035 (328.15 K); 0.441 ± 0.035 (338.15 K); 0.456 ± 0.036 (348.15 K); 0.466 ± 0.036 (358.15 K).

For the compound `c1ccccc1` [benzene] + CCCCCC[N+]1(C)CCCCC1.O=S(=O)([N-]S(=O)(=O)C(F)(F)F)C(F)(F)F, the activity coefficient runs as follows: (308.15 K) 0.669 ± 0.045; (318.15 K) 0.687 ± 0.046; (328.15 K) 0.695 ± 0.047; (338.15 K) 0.71 ± 0.047; (348.15 K) 0.722 ± 0.048; (358.15 K) 0.73 ± 0.048.

Regarding `c1ccccc1` [benzene] + CCCCC[N+]1(C)CCCCC1.O=S(=O)([N-]S(=O)(=O)C(F)(F)F)C(F)(F)F, the activity coefficient was found to be 0.696 ± 0.047 (308.15 K); 0.703 ± 0.047 (318.15 K); 0.712 ± 0.047 (328.15 K); 0.721 ± 0.048 (338.15 K); 0.744 ± 0.049 (348.15 K); 0.753 ± 0.05 (358.15 K).

Consider `CCCCO` [butan-1-ol] + CCCCCC[N+]1(C)CCCCC1.O=S(=O)([N-]S(=O)(=O)C(F)(F)F)C(F)(F)F, for which the activity coefficient by setting is: (308.15 K) 2.4 ± 0.16; (318.15 K) 2.13 ± 0.14; (328.15 K) 1.93 ± 0.13; (338.15 K) 1.76 ± 0.12; (348.15 K) 1.64 ± 0.11; (358.15 K) 1.52 ± 0.1.

In the case of `CCCCO` [butan-1-ol] + CCCCC[N+]1(C)CCCCC1.O=S(=O)([N-]S(=O)(=O)C(F)(F)F)C(F)(F)F, the activity coefficient by setting is: (308.15 K) 2.3 ± 0.16; (318.15 K) 2.16 ± 0.15; (328.15 K) 1.98 ± 0.13; (338.15 K) 1.82 ± 0.12; (348.15 K) 1.71 ± 0.11; (358.15 K) 1.57 ± 0.1.

With `C1CCCCCC1` [cycloheptane] + CCCCCC[N+]1(C)CCCCC1.O=S(=O)([N-]S(=O)(=O)C(F)(F)F)C(F)(F)F, the activity coefficient is, setting by setting: (308.15 K) 6.23 ± 0.42; (318.15 K) 6.01 ± 0.41; (328.15 K) 5.77 ± 0.39; (338.15 K) 5.52 ± 0.38; (348.15 K) 5.32 ± 0.36; (358.15 K) 5.08 ± 0.35.

Turning to `C1CCCCCC1` [cycloheptane] + CCCCC[N+]1(C)CCCCC1.O=S(=O)([N-]S(=O)(=O)C(F)(F)F)C(F)(F)F, the activity coefficient is, setting by setting: (308.15 K) 7.97 ± 0.54; (318.15 K) 7.49 ± 0.51; (328.15 K) 7.13 ± 0.49; (338.15 K) 6.82 ± 0.46; (348.15 K) 6.54 ± 0.45; (358.15 K) 6.26 ± 0.43.

On to `C1CCCCC1` [cyclohexane] + CCCCCC[N+]1(C)CCCCC1.O=S(=O)([N-]S(=O)(=O)C(F)(F)F)C(F)(F)F, for which the activity coefficient is 4.99 ± 0.34 (308.15 K); 4.8 ± 0.33 (318.15 K); 4.6 ± 0.31 (328.15 K); 4.43 ± 0.3 (338.15 K); 4.28 ± 0.29 (348.15 K); 4.06 ± 0.28 (358.15 K).

`C1CCCCC1` [cyclohexane] + CCCCC[N+]1(C)CCCCC1.O=S(=O)([N-]S(=O)(=O)C(F)(F)F)C(F)(F)F: the activity coefficient is, setting by setting: (308.15 K) 6.4 ± 0.44; (318.15 K) 5.95 ± 0.41; (328.15 K) 5.64 ± 0.38; (338.15 K) 5.42 ± 0.37; (348.15 K) 5.13 ± 0.35; (358.15 K) 4.99 ± 0.34.

For `C1=CCCCC1` [cyclohexene] + CCCCCC[N+]1(C)CCCCC1.O=S(=O)([N-]S(=O)(=O)C(F)(F)F)C(F)(F)F, the activity coefficient is, setting by setting: (308.15 K) 3.07 ± 0.21; (318.15 K) 3 ± 0.2; (328.15 K) 2.94 ± 0.2; (338.15 K) 2.88 ± 0.2; (348.15 K) 2.81 ± 0.19; (358.15 K) 2.75 ± 0.19.
